Laboratory results from patent US9091804B2, “Polymer film, and optically-compensatory film, polarizer and liquid-crystal display device comprising the same” (FUJIFILM Corporation, priority 2004, dated 2015).

How the values were obtained:
physchem = conditions: DMSO/water=7/3 solvent system
[1] = solubility in 1.5 mol/liter aqueous NaOH at 55° C. (visual); conditions: 1.5 mol/liter NaOH at 55° C., visual observation

SMILES	pKa (physchem)	Solubility [1]
CCN(CC)S(=O)(=O)c1ccc(C)cc1 [A-42]	> 14	<1%
OC(c1ccccc1)(c1ccccc1)c1ccccc1 [D-7]	> 14	<1%
CN(C(=O)c1ccccc1)c1ccccc1 [FA-1]	> 14	<1%

The remaining lines, values ahead:

pKa (physchem)	Solubility [1]	SMILES
> 14	<1%	CCN(C(=O)C1CCCCC1)C1CCCCC1 [FB-2]
> 14	<1%	O=C(C1CCCCC1)N(C1CCCCC1)C1CCCCC1 [FB-6]
